# Laboratory results published in ChEMBL document CHEMBL2150993, “Substituted thiazoles VII. Synthesis and antitumor activity of certain 2-(substituted amino)-4-phenyl-1,3-thiazole analogs” (2012).
# Columns and labels:
# Format in all cases: functional
# Conditions in all cases: at 10 µM
# CCRF-CEM = assay: Growth inhibition of human CCRF-CEM cells after 48 hrs by cell counting analysis
# HL-60 = assay: Growth inhibition of human HL60 cells after 48 hrs by cell counting analysis
# K562 = assay: Growth inhibition of human K562 cells after 48 hrs by cell counting analysis
# RPMI-8226 = assay: Growth inhibition of human RPMI8226 cells after 48 hrs by cell counting analysis
# SR = assay: Growth inhibition of human SR cells after 48 hrs by cell counting analysis
# A549 = assay: Growth inhibition of human A549 cells after 48 hrs by cell counting analysis
# EKVX = assay: Growth inhibition of human EKVX cells after 48 hrs by cell counting analysis
# HOP-62 = assay: Growth inhibition of human HOP62 cells after 48 hrs by cell counting analysis
# HOP-92 = assay: Growth inhibition of human HOP92 cells after 48 hrs by cell counting analysis
# NCI-H226 = assay: Growth inhibition of human NCI-H226 cells after 48 hrs by cell counting analysis
# NCI-H23 = assay: Growth inhibition of human NCI-H23 cells after 48 hrs by cell counting analysis
# [1] = Growth inhibition of human NCI-322M cells after 48 hrs by cell counting analysis
# NCI-H522 = assay: Growth inhibition of human NCI-H522 cells after 48 hrs by cell counting analysis
# HCC 2998 = assay: Growth inhibition of human HCC2998 cells after 48 hrs by cell counting analysis
# HCT-15 = assay: Growth inhibition of human HCT15 cells after 48 hrs by cell counting analysis
# HT-29 = assay: Growth inhibition of human HT-29 cells after 48 hrs by cell counting analysis
# KM12 = assay: Growth inhibition of human KM12 cells after 48 hrs by cell counting analysis
# SW-620 = assay: Growth inhibition of human SW620 cells after 48 hrs by cell counting analysis
# SF-268 = assay: Growth inhibition of human SF268 cells after 48 hrs by cell counting analysis
# SF-295 = assay: Growth inhibition of human SF295 cells after 48 hrs by cell counting analysis
# SF-539 = assay: Growth inhibition of human SF539 cells after 48 hrs by cell counting analysis
# SNB-19 = assay: Growth inhibition of human SNB19 cells after 48 hrs by cell counting analysis
# SNB-75 = assay: Growth inhibition of human SNB75 cells after 48 hrs by cell counting analysis
# U-251 = assay: Growth inhibition of human U251 cells after 48 hrs by cell counting analysis
# LOX IMVI = assay: Growth inhibition of human LOXIMVI cells after 48 hrs by cell counting analysis
# Malme-3M = assay: Growth inhibition of human MALME-3M cells after 48 hrs by cell counting analysis
# M14 = assay: Growth inhibition of human M14 cells after 48 hrs by cell counting analysis
# MDA-MB-435 = assay: Growth inhibition of human MDA-MB-435 cells after 48 hrs by cell counting analysis
# SK-MEL-2 = assay: Growth inhibition of human SK-MEL-2 cells after 48 hrs by cell counting analysis
# SK-MEL-28 = assay: Growth inhibition of human SK-MEL-28 cells after 48 hrs by cell counting analysis
# SK-MEL-5 = assay: Growth inhibition of human SK-MEL-5 cells after 48 hrs by cell counting analysis
# UACC-257 = assay: Growth inhibition of human UACC257 cells after 48 hrs by cell counting analysis
# UACC-62 = assay: Growth inhibition of human UACC62 cells after 48 hrs by cell counting analysis
# IGROV-1 = assay: Growth inhibition of human IGROV1 cells after 48 hrs by cell counting analysis
# OVCAR-3 = assay: Growth inhibition of human OVCAR3 cells after 48 hrs by cell counting analysis
# OVCAR-4 = assay: Growth inhibition of human OVCAR4 cells after 48 hrs by cell counting analysis
# OVCAR-5 = assay: Growth inhibition of human OVCAR5 cells after 48 hrs by cell counting analysis
# OVCAR-8 = assay: Growth inhibition of human OVCAR8 cells after 48 hrs by cell counting analysis
# [2] = Growth inhibition of human NCI-ADR-RES cells after 48 hrs by cell counting analysis
# SK-OV-3 = assay: Growth inhibition of human SKOV3 cells after 48 hrs by cell counting analysis
# ACHN = assay: Growth inhibition of human ACHN cells after 48 hrs by cell counting analysis
# CAKI-1 = assay: Growth inhibition of human Caki1 cells after 48 hrs by cell counting analysis
# RXF 393 = assay: Growth inhibition of human RXF393 cells after 48 hrs by cell counting analysis
# SN12C = assay: Growth inhibition of human SN12C cells after 48 hrs by cell counting analysis
# TK-10 = assay: Growth inhibition of human TK10 cells after 48 hrs by cell counting analysis
# UO-31 = assay: Growth inhibition of human UO31 cells after 48 hrs by cell counting analysis
# PC-3 = assay: Growth inhibition of human PC3 cells after 48 hrs by cell counting analysis
# MCF7 = assay: Growth inhibition of human MCF7 cells after 48 hrs by cell counting analysis
# MDA-MB-231 = assay: Growth inhibition of human MDA-MB-231 cells after 48 hrs by cell counting analysis
# BT-549 = assay: Growth inhibition of human BT549 cells after 48 hrs by cell counting analysis
# T47D = assay: Growth inhibition of human T47D cells after 48 hrs by cell counting analysis
# MDA-MB-468 = assay: Growth inhibition of human MDA-MB-468 cells after 48 hrs by cell counting analysis
# MOLT-4 = assay: Growth inhibition of human MOLT4 cells after 48 hrs by cell counting analysis
# HCT-116 = assay: Growth inhibition of human HCT116 cells after 48 hrs by cell counting analysis
smiles,measurement,setting,value
CN1CCN(CCC(=O)Nc2nc(-c3ccc(Br)cc3)cs2)CC1,growth inhibition (GI),CCRF-CEM,24.9%
same,growth inhibition (GI),HL-60,37.7%
same,growth inhibition (GI),K562,52.4%
same,growth inhibition (GI),RPMI-8226,30.5%
same,growth inhibition (GI),SR,<10%
same,growth inhibition (GI),A549,22.2%
same,growth inhibition (GI),EKVX,10.8%
same,growth inhibition (GI),HOP-62,25%
same,growth inhibition (GI),HOP-92,42.7%
same,growth inhibition (GI),NCI-H226,19.1%
same,growth inhibition (GI),NCI-H23,26%
same,growth inhibition (GI),[1],17.2%
same,growth inhibition (GI),NCI-H522,28.5%
same,growth inhibition (GI),HCC 2998,<10%
same,growth inhibition (GI),HCT-15,42.6%
same,growth inhibition (GI),HT-29,80.4%
same,growth inhibition (GI),KM12,<10%
same,growth inhibition (GI),SW-620,<10%
same,growth inhibition (GI),SF-268,12.8%
same,growth inhibition (GI),SF-295,14.4%
same,growth inhibition (GI),SF-539,31.4%
same,growth inhibition (GI),SNB-19,20.9%
same,growth inhibition (GI),SNB-75,47.9%
same,growth inhibition (GI),U-251,33.6%
same,growth inhibition (GI),LOX IMVI,31.8%
same,growth inhibition (GI),Malme-3M,24.6%
same,growth inhibition (GI),M14,33.7%
same,growth inhibition (GI),MDA-MB-435,50.6%
same,growth inhibition (GI),SK-MEL-2,<10%
same,growth inhibition (GI),SK-MEL-28,23.4%
same,growth inhibition (GI),SK-MEL-5,76.2%
same,growth inhibition (GI),UACC-257,36.4%
same,growth inhibition (GI),UACC-62,71.6%
same,growth inhibition (GI),IGROV-1,20.4%
same,growth inhibition (GI),OVCAR-3,<10%
same,growth inhibition (GI),OVCAR-4,<10%
same,growth inhibition (GI),OVCAR-5,15.6%
same,growth inhibition (GI),OVCAR-8,<10%
same,growth inhibition (GI),[2],22.9%
same,growth inhibition (GI),SK-OV-3,<10%
same,growth inhibition (GI),ACHN,15.9%
same,growth inhibition (GI),CAKI-1,30.2%
same,growth inhibition (GI),RXF 393,38.1%
same,growth inhibition (GI),SN12C,31.9%
same,growth inhibition (GI),TK-10,22.5%
same,growth inhibition (GI),UO-31,50.8%
same,growth inhibition (GI),PC-3,24.6%
same,growth inhibition (GI),MCF7,28.8%
same,growth inhibition (GI),MDA-MB-231,64.3%
same,growth inhibition (GI),BT-549,32.5%
same,growth inhibition (GI),T47D,34.9%
same,growth inhibition (GI),MDA-MB-468,48.7%
same,growth inhibition (GI),MOLT-4,38.1%
same,growth inhibition (GI),HCT-116,42.5%
Cc1ccc(-c2csc(NC(=O)CN3CCN(C)CC3)n2)cc1,growth inhibition (GI),CCRF-CEM,<10%
same,growth inhibition (GI),HL-60,<10%
same,growth inhibition (GI),K562,11.4%
same,growth inhibition (GI),RPMI-8226,<10%
same,growth inhibition (GI),SR,<10%
same,growth inhibition (GI),A549,<10%
same,growth inhibition (GI),EKVX,<10%
same,growth inhibition (GI),HOP-62,<10%
same,growth inhibition (GI),HOP-92,<10%
same,growth inhibition (GI),NCI-H226,<10%
same,growth inhibition (GI),NCI-H23,<10%
same,growth inhibition (GI),[1],<10%
same,growth inhibition (GI),NCI-H522,<10%
same,growth inhibition (GI),HCC 2998,<10%
same,growth inhibition (GI),HCT-15,<10%
same,growth inhibition (GI),HT-29,<10%
same,growth inhibition (GI),KM12,<10%
same,growth inhibition (GI),SW-620,<10%
same,growth inhibition (GI),SF-268,<10%
same,growth inhibition (GI),SF-295,<10%
same,growth inhibition (GI),SF-539,<10%
same,growth inhibition (GI),SNB-19,<10%
same,growth inhibition (GI),SNB-75,42.2%
same,growth inhibition (GI),U-251,<10%
same,growth inhibition (GI),LOX IMVI,<10%
same,growth inhibition (GI),Malme-3M,<10%
same,growth inhibition (GI),M14,<10%
same,growth inhibition (GI),MDA-MB-435,<10%
same,growth inhibition (GI),SK-MEL-2,<10%
same,growth inhibition (GI),SK-MEL-28,<10%
same,growth inhibition (GI),SK-MEL-5,<10%
same,growth inhibition (GI),UACC-257,<10%
same,growth inhibition (GI),UACC-62,<10%
same,growth inhibition (GI),IGROV-1,<10%
same,growth inhibition (GI),OVCAR-3,<10%
same,growth inhibition (GI),OVCAR-4,<10%
same,growth inhibition (GI),OVCAR-5,<10%
same,growth inhibition (GI),OVCAR-8,<10%
same,growth inhibition (GI),[2],<10%
same,growth inhibition (GI),SK-OV-3,<10%
same,growth inhibition (GI),ACHN,<10%
same,growth inhibition (GI),CAKI-1,12%
same,growth inhibition (GI),RXF 393,<10%
same,growth inhibition (GI),SN12C,10.4%
same,growth inhibition (GI),TK-10,<10%
same,growth inhibition (GI),UO-31,19.9%
same,growth inhibition (GI),PC-3,<10%
same,growth inhibition (GI),MCF7,12.7%
same,growth inhibition (GI),MDA-MB-231,34.2%
same,growth inhibition (GI),BT-549,12.8%
same,growth inhibition (GI),T47D,<10%
same,growth inhibition (GI),MDA-MB-468,<10%
same,growth inhibition (GI),MOLT-4,13.4%
same,growth inhibition (GI),HCT-116,<10%
